Laboratory results reported in patent US11220534B2, “Treatment of neurological diseases” (Lancaster University Business Enterprises Limited, priority 2016, dated 2022).
Where no end group is shown, it is not given here. [ ]: non-standard residue; d: D form. Aib = CC(C)(N)C(=O)O

Tests used:
[1] = system: MPTP mouse model of Parkinson's disease; conditions: cited from earlier work
APP/PS1 transgenic mice [2] = assay: Immunohistochemical measurement of synaptic densities (synaptophysin) in the cortex of APP/PS1 transgenic mice; format: in vivo; conditions: 10 nmol/kg i.p. once daily for 8 weeks, FIG. 2, N=6 per group
From the text: (§1) Animal models have been developed to test novel drugs. A standard model for Alzheimer's disease is transgenic mice that express human mutated genes for amyloid production that are known to induce Alzheimer's disease in humans. These APP/PS1 transgenic mice recapitulate some of the symptoms of Alzheimer's disease such as the aggregation of amyloid in the brain, memory loss and the loss of synapses (Radde et al., 2006).
(§2) The APP/PS1 mice express human Swedish mutated APP and human mutated presenilin-1 which induce Alzheimer's Disease in humans.
(§3) The dose of peptide tested was 10 nmol/kg body weight. The peptides were administered by a once-daily intraperitoneal injection for 8 weeks. Saline injections were administered as a control. Six animals per group were injected with a peptide or a saline control.
Animals (6 per group) were perfused transcardially with 30 ml of ice-cold PBS and 30 ml of ice-cold 4% paraformaldehyde to postfix the brain. The brains were removed and placed in fresh 30% sucrose solution in PBS to cryoprotect tissue and cut at a thickness of 40 μm on a cryostat. Sections were chosen according to stereological rules, with the first section taken at random and every 5th section afterwards. Between 7 and 13 sections were analysed per brain. […]

C57BL/6 mice given MPTP [3] = assay: Rotarod motor control test in the MPTP Parkinson mouse model; format: in vivo; conditions: 10 nmol/kg i.p. once daily for 2 weeks, FIG. 3, N=6 per group
From the text: (§4) A standard model to induce Parkinson like symptoms in mice is the injection of the chemical (MPTP) (Li et al., 2009). This chemical impairs or kills neurons in the brain that produce dopamine. The mice develop motor impairments, and the dopaminergic neurons in the brain are reduced in numbers and function. The enzyme tyrosine hydroxylase (TH) is required to synthesise dopamine. A loss of TH signifies a loss of dopamine production (Harkavyi et al., 2008).
Adult male C57BL/6 mice were given the dopaminergic toxin MPTP (20 mg/kg in 0.1 mL of PBS i.p. at 2-h intervals of 4 doses MPTP; Sigma) or vehicle (PBS) for one day. This treatment selectively affects dopaminergic neurons and induces Parkinson-like symptoms in mice.
The dose of peptide tested was 10 nmol/kg body weight. The peptides were administered by a once-daily intraperitoneal injection for 2 weeks. Saline injections were administered as a control. Six animals per group were injected with a peptide or a saline control.
The rotarod consists of a rotating pole that accelerates over time. Mice are placed on the rod, and motor skills are tested by accelerating the rotation. As the rotation increases, animals lose grip and fall on a cushion located below the rod. […] Each animal's endurance time was recorded, and the average was calculated. Data were analysed using a one-way ANOVA with post-hoc Bonferroni tests.

APP/PS1 transgenic mice [4] = assay: Immunohistochemical measurement of beta-amyloid plaque load in the cortex of APP/PS1 transgenic mice; format: in vivo
From the text: as §1, §2, §3
Animals (6 per group) were perfused transcardially with 30 ml of ice-cold PBS and 30 ml of ice-cold 4% paraformaldehyde to postfix the brain. The brains were removed and placed in fresh 30% sucrose solution in PBS to cryoprotect tissue and cut at a thickness of 40 μm on a cryostat. Sections were chosen according to stereological rules, with the first section taken at random and every 5th section afterwards. Between 7 and 13 sections were analysed per brain.
Immunostaining techniques were used to assess the neuronal plaque load (anti beta-amyloid rabbit polyclonal antibody (1:200, rabbit polyclonal-Invitrogen 71-5800) and of synaptophysin (polyclonal rabbit anti-synaptophysin primary antibody, 1:2000, Abcam, Cambridge, UK) to measure the amount of synapses in the cortex. Brain samples were first exposed to 99% formic acid for 7 minutes and then washed 3 times for 10 minutes in TBS. Pre-treatment with 99% formic acid is known to drastically increase the detection of beta-Amyloid in formalin-fixed brain samples. Then samples were incubated in 0.3% H2O2 (Sigma Aldrich; Cat.-No.: 516813) in TBS for 30 minutes on the shaker to deplete endogenous peroxides activity, and were 3 times washed in TBS for 10 minutes afterwards.
To increase permeability of membranes in the brain tissue, samples were exposed to 0.3% Triton X-100 (Sigma Aldrich; Cat.-No.: 516813) in TBS for 10 minutes on the shaker. Unspecific proteinophilic binding in the tissue was saturated by incubating the samples with 5% goat serum (Gibco; Cat.-No.: 16210-064) in TBS for 30 minutes on the shaker.
A primary antibody against beta-Amyloid or synaptophysin was added and incubated overnight on the shaker at 4° C. The antibody was polyclonal and raised against a synthetic beta-Amyloid 1-43 peptide in rabbit. The primary antibody was used in a final dilution of 1 to 250 in TBS containing 2% goat serum and […]. […]

C57BL/6 mice given MPTP [5] = assay: Immunohistochemistry for TH in the substantia nigra pars compacta, MPTP Parkinson mouse model; format: in vivo; conditions: 10 nmol/kg i.p. once daily for 2 weeks, FIG. 4, N=6 per group
From the text: as §4
Adult male C57BL/6 mice were given the dopaminergic toxin MPTP (20 mg/kg in 0.1 mL of PBS i.p. at 2-h intervals of 4 doses MPTP; Sigma) or vehicle (PBS) for one day. […]
Immunohistochemistry for TH in the Substantia Nigra Pars Compacta and the Striatum Six animals per group were analysed for expression of tyrosine hydroxylase (TH), a marker for dopamine production. Coronal brain sections (20 μm) from striatum (bregma […]) and SNpc (bregma […]) were analysed by immunohistochemistry using antibodies recognising TH.
Sections were cut on a cryostat and postfixed in 4% paraformaldehyde, washed in PBS, treated with 0.3% H2O2 in methanol for 20 min, and washed again. […] For each animal, three tissue sections from one level of striatum were stained and analysed for TH-positive fibre innervation. […] Two tissue sections from each level were quantified by immunohistochemistry. […]

[6] = system: APP/PS1 mouse model of AD; conditions: 12 months old APP/PS1 mice; cited from earlier work

lixisenatide
motor impairment, chronic inflammation in the brain and loss of dopaminergic neurons induced by MPTP [1]: good effects in preventing the motor impairment, chronic inflammation in the brain, and loss of dopaminergic neurons

YXEGTFTSDYSIYLDKQAAXEFVNWLLAGGPSSGAPPPSKKKKKK-NH2 (Y[Aib]EGTFTSDYSIYLDKQAA[Aib]EFVNWLLAGGPSSGAPPPSKKKKKK-NH2) [DA4, No. 11; X=aminoisobutyric acid]
synapse loss / synaptic densities in the cortex (APP/PS1 transgenic mice [2]): protected from synapse loss | impairment of motor skills (rotarod endurance time) (C57BL/6 mice given MPTP [3]): protect mice from an impairment of motor skills induced by MPTP | beta-amyloid plaque load in the cortex (% area positive for beta amyloid in cross sections of the brain cortex) (APP/PS1 transgenic mice [4]; 10 nmol/kg body weight, once-daily intraperitoneal injection for 8 weeks, FIG. 1, N=6 per group): reduces beta-amyloid plaque load | beta-amyloid plaque load compared with the single GIP or GLP-1 analogues (APP/PS1 transgenic mice [4]; 10 nmol/kg i.p. once daily for 8 weeks, FIG. 1): superior to the single GIP or GLP-1 analogues | MPTP-induced reduction of TH in the substantia nigra, pars compacta (protection of dopaminergic neurons) (C57BL/6 mice given MPTP [5]): protected dopaminergic neurons at a greater rate than the single GIP and GLP-1 analogues

D-Ala^2-GIP
amyloid plaque load [6]: much reduced | synaptic plasticity in area CA1 of the hippocampus and spatial memory formation [6]: unimpaired | motor impairment, chronic inflammation in the brain and loss of dopaminergic neurons induced by MPTP [1]: protective and prevented the impairment of motor activity, the loss of dopaminergic neurons, loss of synapses and the chronic inflammation response induced by MPTP
